The text below walks through data of patent US20230382871A1, “CSF1R KINASE INHIBITOR AND USE THEREOF” (SHANGHAI INSTITUTE OF MATERIA MEDICA, CHINESE ACADEMY OF …, priority 2020, published 2023).

The subject of data set [1] is M2-type macrophage marker CD206 in HT-29 tumor tissues. Kind of data set: Immunohistochemistry of M2-type macrophage marker CD206 in HT-29 tumor tissues. The class given is in vivo, nude mice. The conditions noted are these: Compound I 5, 10, 20 mg/kg; Axitinib 40 mg/kg. Here is the method: At the end of the in vivo experiments, U87MG and HT-29 xenografts in nude mice were removed and fixed with […] to prepare paraffin sections.
Expression of individual proteins was assessed using multiplicative quick score method (MQS). This evaluation method takes into account both the staining intensity and the staining range. The method estimates the proportion of positive cells and gives a range score from 1 to 6 (1=1%-4%; 2=5%-19%; 3=20%-39%; 4=40%-59%; 5=60%-79%; 6=80%-100%). The average intensity score of positive stained cells was 0 to 3 (0=no staining; 1=weak staining; 2=moderate staining; 3=strong staining). The total score a (minimum 0 and maximum 18) is then calculated by multiplying the range score by the intensity score.
For detecting the changes in the macrophage marker F4/80 and M2-type macrophage marker CD206 in the HT-29 tumor tissues, quantitative analysis (solvent: n=12, blank preparation: n=6, Compound I (5 mg/kg): n=6, Compound I (10 mg/kg): n=6, Compound I (20 mg/kg): n=6, Axitinib: n=6) was performed on all sections and the experimental data were analyzed for significant differences using the t-test. * denotes p<0.05 as compared with the blank preparation group, ** denotes p<0.01 as compared with the blank preparation group, and denotes p<0.001 as compared with the blank preparation group.

Data set [2] deals with phosphorylated CSF1R (p-CSF1R) in BMDM. Nature of the data set: Western blot of CSF1-stimulated CSF1R phosphorylation in BMDM. It counts as cell-based, mouse. The procedure: Bone marrow-derived macrophages, after induction by CSF1 for 5 to 7 days, were centrifuged to remove the previous medium. 2 mL of a serum-free medium was added. […] CSF1 factor was added at a final concentration of 50 ng/mL for stimulation for 15 minutes. The culture medium was discarded, and cells were washed three times with pre-cooled PBS. Then, the cells were lysed by adding 1×SDS gel loading buffer. The cell lysates were heated in a boiling water bath for 15 min, and then stored at −20° C.
A protein sample as described above was subjected to SDS-PAGE electrophoresis. Then, the protein was transferred to a nitrocellulose membrane using a semi-dry electrotransfer system. The nitrocellulose membrane was placed in a blocking solution (5% skim milk in TBS-T) and incubated for 2 h at room temperature. Then, the membrane was allowed to react with a primary antibody overnight at 4° C. After the membrane was washed with TBS-T for three times with 15 min each time, the membrane was allowed to react in a secondary antibody dilution at room temperature for 1-2 h. […]
The inhibitory effect of Compound I on CSF1R and its signaling pathway in mouse primary macrophages was detected by immunoblotting assays. Each experiment was independently repeated three times and all experimental results were quantified. […]

Data set [3] has as its system human colorectal cancer HT-29 subcutaneous xenografts. Nature of the data set: Human colorectal cancer HT-29 subcutaneous xenografts in nude mice. It counts as in vivo, BALB/c nude mice. The conditions noted are these: for Body Weight (g) D 21 / RTV (mean ± SD) / TV (mm3, mean ± SD) D 21: D 21; for T/C (%): Day 21. From the text: BALB/c female nude mice of 6 weeks old were used, and were provided by Shanghai Lingchang Biotechnology Co., Ltd.
Human colorectal cancer HT-29 cells were subcutaneously inoculated into the right axillary fossa of a nude mouse (5×10^6 cells/mouse). After a xenograft was formed, the tumor was transferred to a nude mouse for 1 passage.
Tumor tissues at the vigorous growth stage were removed and cut into pieces of approximately 1.5 mm^3. The tumor fragments were inoculated subcutaneously into the right axillary fossa of nude mice under aseptic conditions. The diameters of the subcutaneous xenografts in nude mice were measured with a vernier caliper. The animals were randomly grouped after the xenografts reached an average volume of about 120 mm^3. Compound I was administered orally at doses of 20 mg/kg, 10 mg/kg and 5 mg/kg twice a day for 21 consecutive days. An equal volume of a blank preparation was administered orally twice a day for 21 consecutive days. The positive control drug Axitinib was administered orally at a dose of 40 mg/kg group twice a day for 21 consecutive days. An equal volume of water for injection was administered to the animals in the solvent group. Throughout the experiment, the diameters of the xenografts were measured twice a week and the mice were weighed at the same time. The tumor volume (TV) was calculated as TV=½×a×b^2, where “a” and “b” denote the length and width of a tumor, respectively. The relative tumor volume (RTV) was calculated from the measurement results with the calculation formula RTV=Vt/V0, in which V0 is the tumor volume measured upon administration after grouping (i.e., D0) and Vt is the tumor volume from each measurement. The evaluation index of anti-tumor activity is the relative tumor proliferation rate T/C (%), which is calculated as T/C (%)=(TRTV/CRTV)×100%, in which TRTV denotes the RTV from the treatment group and CRTV denotes the RTV from solvent group.

The next data set addresses recombinant CSF1R kinase (Homo sapiens (Human), UniProt P07333). Kind of data set: CSF1R kinase activity ELISA assay. It counts as biochemical. The conditions noted are these: poly(Glu, Tyr)4:1 substrate, ATP 5 μM, read-out: IC50, inhibition of CSF1R kinase activity.

recombinant CSF1R kinase, sequence (P07333 20-972): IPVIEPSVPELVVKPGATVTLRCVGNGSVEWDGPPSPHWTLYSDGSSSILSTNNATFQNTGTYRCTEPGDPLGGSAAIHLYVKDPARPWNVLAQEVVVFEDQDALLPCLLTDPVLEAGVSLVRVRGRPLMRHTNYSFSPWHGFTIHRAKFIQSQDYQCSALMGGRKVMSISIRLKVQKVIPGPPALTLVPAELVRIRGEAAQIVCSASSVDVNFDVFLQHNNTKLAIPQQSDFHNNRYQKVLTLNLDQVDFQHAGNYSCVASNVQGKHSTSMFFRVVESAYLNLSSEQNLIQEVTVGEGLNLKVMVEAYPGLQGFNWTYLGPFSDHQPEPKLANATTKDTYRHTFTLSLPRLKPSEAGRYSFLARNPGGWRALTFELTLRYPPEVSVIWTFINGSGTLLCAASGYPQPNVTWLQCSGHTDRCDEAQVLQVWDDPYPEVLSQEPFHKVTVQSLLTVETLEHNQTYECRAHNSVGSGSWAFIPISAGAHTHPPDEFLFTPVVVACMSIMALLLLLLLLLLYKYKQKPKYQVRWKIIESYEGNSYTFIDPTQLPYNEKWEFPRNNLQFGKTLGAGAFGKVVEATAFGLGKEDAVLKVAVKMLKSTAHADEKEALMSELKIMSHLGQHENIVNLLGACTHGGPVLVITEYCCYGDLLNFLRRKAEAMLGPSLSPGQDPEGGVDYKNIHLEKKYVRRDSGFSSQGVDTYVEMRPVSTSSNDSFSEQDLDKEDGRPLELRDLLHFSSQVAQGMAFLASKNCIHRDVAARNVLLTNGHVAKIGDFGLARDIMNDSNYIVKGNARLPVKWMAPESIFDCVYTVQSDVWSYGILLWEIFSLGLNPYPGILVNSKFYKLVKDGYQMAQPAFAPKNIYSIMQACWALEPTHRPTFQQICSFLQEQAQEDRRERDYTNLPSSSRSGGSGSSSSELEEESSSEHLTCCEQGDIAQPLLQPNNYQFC

Regarding `Cc1cc(NC(=O)c2cccc3cc(-c4cccc5[nH]nc(N)c45)ccc23)ccc1F` [Compound I], the “expression of CD206, HT-29 tumor tissue” value in data set [1] is “inhibited the expression of F4/80 and CD206 in a dose-dependent manner”. The inhibition at 0.1 µM in data set [2] (Mus musculus, 100 nM, 2 h, CSF1 50 ng/mL 15 min) is 57.3%. For the same compound, the “CSF1 stimulated phosphorylation levels of CSF1R and AKT” value in data set [2] (immunoblotting) is “inhibited in a dose-dependent manner”. Further, in data set [3] (5 mg/kg bid × 21 po), the “Body Weight (g) D 0” value is on record as 19.7 g; the “TV (mm3, mean ± SD) D 0” value is 113 ± 28 mm3; the “Body Weight (g) D 21” value came to 18.6 g; the “RTV (mean ± SD)” value came to 3.76 ± 0.87. Further, in data set [3] (5 mg/kg bid × 21 po), the “TV (mm3, mean ± SD) D 21” value stood at 427 ± 157 mm3 and the “T/C (%)” value is 42.70%. In data set [3] (10 mg/kg bid × 21 po), the “Body Weight (g) D 0” value is listed as 19.8 g; the “TV (mm3, mean ± SD) D 0” value is 120 ± 33 mm3; the “Body Weight (g) D 21” value worked out at 18.1 g; the “RTV (mean ± SD)” value came to 2.75 ± 1.04. For the same compound, in data set [3] (10 mg/kg bid × 21 po), the “TV (mm3, mean ± SD) D 21” value is listed as 336 ± 173 mm3 and the “T/C (%)” value is 31.27%. For the same compound, in data set [3] (20 mg/kg bid × 21 po), the “Body Weight (g) D 0” value was found to be 20.1 g; the “TV (mm3, mean ± SD) D 0” value stood at 121 ± 35 mm3; the “Body Weight (g) D 21” value was 18.2 g; the “RTV (mean ± SD)” value is recorded as 1.53 ± 0.25. Further, in data set [3] (20 mg/kg bid × 21 po), the “TV (mm3, mean ± SD) D 21” value is on record as 188 ± 69 mm3 and the “T/C (%)” value stood at 17.38%. Also, the IC50 on recombinant CSF1R kinase was 19.3 ± 3.4 nM.
